ChEMBL document CHEMBL6177981, “Bardoxolone Derivatives as Novel Pseudo-Natural Necroptosis Inhibitors by Destabilizing HSP90 Client Proteins” (J Med Chem, 2025)
The source made the active and inactive calls. No cut-off for these calls is given here.

Experiments:
[1] = system: RAW264.7; assay: Anti-necroptotic activity in LZ-induced mouse RAW264.7 cells assessed as increase in cell viability preincubated with compound followed by LPS and Z-VAD-FMK stimulation and measured after 16 hrs by CellTiter-Lumi luminescent cell viability assay; assay type: functional, cell-based
[2] = system: HT-29; assay: Downregulation of RIPK3 protein level in human HT-29 cells at 6 uM preincubated with MG132 for 2 hrs followed by compound addition and measured after 9 hrs by Western blot analysis; assay type: functional, cell-based
[3] = Acute toxicity in male C57BL/6J mouse assessed as inflammatory cell infiltration in kidney at 2 g/Kg, IG measured after 72 hrs by H and E staining based analysis; assay type: tissue-based; conditions: in vivo, po, 2000 mg/kg
[4] = biological target: Heat shock protein HSP 90-alpha (Homo sapiens, UniProt P07900); assay: Binding affinity to N-terminal 6His/SUMO-tagged recombinant human HS90AA1 assessed as dissociation constant incubated for 30 mins by MST analysis
[5] = system: Mus musculus; assay: (§1) Anti-necroptotic activity in TNFalpha/Z-VAD-FMK induced SIRS male C57BL/6J mouse model assessed as reduction in IL6 in brain at 5 to 10 mg/kg, po pre-administered with compound via gavage for 2 hrs followed by […] of Z-VAD-FMK stimulation for 15 mins with subsequent TNF-alpha stimulation for 1 hrs and re-current […] of Z-VAD-FMK stimulation and measured after 8 hrs post SIRS induction by ELISA; assay type: functional, organism-based; conditions: dose 5-10 mg/kg, time 10.0 hrs
[6] = biological target: Heat shock protein HSP90 (Homo sapiens) (UniProt P07900+P08238); assay: Inhibition of HSP90 in TSZ-induced human HT-29 cells assessed as reduction in EGFR protein level at 10 uM preincubated with compound followed by Z-VAD-FMK, SM164 and TNFalpha stimulation and measured after 6 hrs by Western blot analysis; assay type: cell-based
[7] = system: HT-29; assay: Anti-necroptotic activity in TSZ-induced human HT-29 cells assessed as increase in cell viability at 2.5 uM preincubated with compound followed by Z-VAD-FMK, SM164 and TNFalpha addition and measured after 12 hrs by CellTiter-Lumi luminescent cell viability assay relative to control; assay type: functional
[8] = system: HT-29; assay: Upregulation of HSP70 expression in human HT-29 cells at 1.5 uM incubated for 9 hrs by Western blot analysis; assay type: functional, cell-based
[9] = system: HT-29; assay: Downregulation of RIPK1 protein level in human HT-29 cells at 6 uM preincubated with MG132 for 2 hrs followed by compound addition and measured after 9 hrs by Western blot analysis; assay type: functional, cell-based
[10] = Acute toxicity in male C57BL/6J mouse assessed as hemorrhage in heart at 2 g/Kg, IG measured after 72 hrs by H and E staining based analysis; assay type: tissue-based; conditions: in vivo, po, 2000 mg/kg
[11] = system: HT-29; assay: Downregulation of MLKL protein level in human HT-29 cells incubated for 9 hrs by Western blot analysis; assay type: functional, cell-based; conditions: dose 0.75-6 µM
[12] = Acute toxicity in male C57BL/6J mouse assessed as hemorrhage in brain at 2 g/Kg, IG measured after 72 hrs by H and E staining based analysis; assay type: tissue-based; conditions: in vivo, po, 2000 mg/kg
[13] = Acute toxicity in male C57BL/6J mouse assessed as hemorrhage in lung at 2 g/Kg, IG measured after 72 hrs by H and E staining based analysis; assay type: tissue-based; conditions: in vivo, po, 2000 mg/kg
[14] = system: Mus musculus; assay: as §1, with “liver” for “brain”; assay type: functional, organism-based; conditions: dose 5-10 mg/kg, time 10.0 hrs
[15] = system: L929; assay: Anti-necroptotic activity in TZ-induced mouse L929 cells assessed as increase in cell survival at 10 uM measured after 12 hrs by Live-cell super-resolution panoramic microscopic analysis; assay type: functional, cell-based
[16] = Acute toxicity in male C57BL/6J mouse assessed as effect on ALT level at 2 g/Kg, IG measured after 72 hrs; conditions: in vivo, po, 2000 mg/kg
[17] = system: HT-29; assay: Downregulation of EGFR expression in human HT-29 cells at 0.75 to 6 uM incubated for 9 hrs by Western blot analysis; assay type: functional, cell-based; conditions: dose 0.75-6 µM
[18] = Acute toxicity in male C57BL/6J mouse assessed as effect on urea level at 2 g/Kg, IG measured after 72 hrs; conditions: in vivo, po, 2000 mg/kg
[19] = biological target: T1, Receptor-interacting serine/threonine-protein kinase 1 (Homo sapiens) (UniProt Q13546); assay: Inhibition of RIPK1 activation in TSZ-induced human HT-29 cells at 10 uM preincubated with compound followed by Z-VAD-FMK, SM164 and TNFalpha stimulation and measured after 6 hrs by Western blot analysis; assay type: cell-based
T1 sequence (whole entry): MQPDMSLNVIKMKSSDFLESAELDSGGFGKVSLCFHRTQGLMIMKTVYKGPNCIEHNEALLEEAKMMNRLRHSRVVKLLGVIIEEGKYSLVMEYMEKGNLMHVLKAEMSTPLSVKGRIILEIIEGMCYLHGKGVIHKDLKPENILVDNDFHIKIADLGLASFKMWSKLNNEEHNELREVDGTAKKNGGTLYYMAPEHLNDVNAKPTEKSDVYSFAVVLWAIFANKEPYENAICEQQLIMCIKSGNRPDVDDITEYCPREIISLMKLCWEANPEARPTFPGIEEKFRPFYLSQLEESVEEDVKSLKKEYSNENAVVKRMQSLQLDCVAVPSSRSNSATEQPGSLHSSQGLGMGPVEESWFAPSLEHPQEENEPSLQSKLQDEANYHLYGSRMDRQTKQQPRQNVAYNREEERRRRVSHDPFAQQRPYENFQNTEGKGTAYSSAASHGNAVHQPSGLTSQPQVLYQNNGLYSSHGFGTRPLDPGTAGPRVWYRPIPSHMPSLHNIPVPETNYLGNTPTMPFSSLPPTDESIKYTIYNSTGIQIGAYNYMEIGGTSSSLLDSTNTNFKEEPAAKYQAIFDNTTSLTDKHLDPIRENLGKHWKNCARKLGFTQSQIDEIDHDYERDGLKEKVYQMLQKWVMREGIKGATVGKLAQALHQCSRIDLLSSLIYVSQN

[20] = system: HT-29; assay: Downregulation of MLKL protein level in human HT-29 cells at 6 uM preincubated with MLN4924 for 2 hrs followed by compound addition and measured after 9 hrs by Western blot analysis; assay type: functional, cell-based
[21] = system: Mus musculus; assay: as §1, with “survival rate” for “reduction in IL6 in brain”, “at” for “at 5 to”, “relative to control” for “by ELISA”; assay type: functional; conditions: time 10 hrs
[22] = Acute toxicity in male C57BL/6J mouse assessed as hemorrhage in liver at 2 g/Kg, IG measured after 72 hrs by H and E staining based analysis; assay type: tissue-based; conditions: in vivo, po, 2000 mg/kg
[23] = system: HeLa; assay: Inhibition of RIPK1 protein expression in RIPK3-deficient human HeLa cells at 0.75 to 6 uM incubated for 9 hrs by Western blot analysis; assay type: functional, cell-based; conditions: dose 0.75-6 µM
[24] = Acute toxicity in male C57BL/6J mouse assessed as inflammatory cell infiltration in spleen at 2 g/Kg, IG measured after 72 hrs by H and E staining based analysis; assay type: tissue-based; conditions: in vivo, po, 2000 mg/kg
[25] = system: HeLa; assay: Downregulation of EGFR expression in RIPK3-deficient human HeLa cells at 0.75 to 6 uM incubated for 9 hrs by Western blot analysis; assay type: functional, cell-based; conditions: dose 0.75-6 µM
[26] = Acute toxicity in male C57BL/6J mouse assessed as inflammatory cell infiltration in liver at 2 g/Kg, IG measured after 72 hrs by H and E staining based analysis; assay type: tissue-based; conditions: in vivo, po, 2000 mg/kg

Cn1ccc(-c2ccc(NC(=O)[C@]34CCC(C)(C)C[C@H]3[C@H]3C(=O)C=C5[C@@]6(C)C=C(C#N)C(=O)C(C)(C)[C@@H]6CC[C@@]5(C)[C@]3(C)CC4)cc2)n1
Activity [1]: Dose-dependent-effect | Activity [2]: Active | Activity [3]: Non-toxic | Kd [4]: 185 nM | Activity [5]: Active | inhibition [6]: Active | Activity [7]: 100% | Activity [8]: Active | Activity [9]: Active | Activity [10]: Non-toxic | Activity [11]: Dose-dependent-effect | Activity [12]: Non-toxic | Activity [13]: Non-toxic | Activity [14]: Active | Activity [15]: Active | Activity [16]: Non-toxic | Activity [17]: Active | Activity [18]: Non-toxic | inhibition [19]: Active | Activity [20]: Active | survival at 10 mg/kg [21]: 100% | Activity [22]: Non-toxic | inhibition [23]: Active | Activity [24]: Non-toxic | Activity [25]: Active | Activity [26]: Non-toxic
